Data reported in patent US20260209218A1, “3-PHENYLQUINAZOLINONES AS NOVEL ANTI-CANCER THERAPY” (HELMHOLTZ ZENTRUM MÜNCHEN - DEUTSCHES FORSCHUNGSZENTRUM FÜR …, priority 2022, published 2026).

Biological target: T1, hFSP1 (Homo sapiens, UniProt Q9BRQ8)
T1 construct: expressed in transfected cells; host or cells: Gpx4 KO isogenic fibroblasts (Pfa1, mouse) overexpressing hFSP1
T1 sequence (Q9BRQ8 1-373): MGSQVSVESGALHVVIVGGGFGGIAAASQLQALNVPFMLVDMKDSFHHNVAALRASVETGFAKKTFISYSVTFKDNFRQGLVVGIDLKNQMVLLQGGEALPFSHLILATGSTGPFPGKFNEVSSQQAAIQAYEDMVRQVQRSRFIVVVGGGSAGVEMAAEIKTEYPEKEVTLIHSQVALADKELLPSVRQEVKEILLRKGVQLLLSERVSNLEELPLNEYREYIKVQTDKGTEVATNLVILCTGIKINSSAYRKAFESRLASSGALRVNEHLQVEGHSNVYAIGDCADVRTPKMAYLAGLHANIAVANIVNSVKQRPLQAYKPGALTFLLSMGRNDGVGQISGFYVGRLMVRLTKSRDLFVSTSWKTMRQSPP
Test: Dose-response of screening hits, cell survival by Aquabluer in hFSP1 GPX4 KO cells
Format: cell-based
Settings: FSP1 overexpressing cells lacking GPX4
Method: To identify new small molecule inhibitors that induce ferroptosis in FSP1 overexpressing cells lacking GPX4, hFSP1 GPX4 KO as well as FSP1 GPX4 wild type (WT) isogenic fibroblasts were screened using a subtractive high throughput screening (HTS) approach. As such, both cell lines were plated in parallel and screened against HMGU libraries at a fixed concentration of 10 μM. Cell survival was evaluated using the LIVE/DEAD assay Aquabluer. The percentage (%) of viable cells was determined for both wild type (WT) and knockout (KO) cell lines. Hits were considered as compounds that induce ferroptosis in KO but not in WT cells. Subsequently, positive hits were assayed in a dose-response manner to establish EC50 values of respective compounds (see Table 2).

Row | Structure (SMILES) | EC50 [nM]
1 | CCOc1ccc(CC(=O)Nc2ccc(-n3c(C)nc4ccccc4c3=O)cc2)cc1 [Compound 2] | > 1000
2 | COc1cc(C(=O)Nc2ccc(-n3c(C)nc4ccccc4c3=O)cc2)cc(OC)c1OC [Compound 3] | > 1000
3 | COc1ccc(CC(=O)Nc2ccc(-n3c(C)nc4ccccc4c3=O)cc2)cc1 [Compound 4] | > 1000
4 | COc1ccc(CC(=O)Nc2cccc(-n3c(C)nc4ccccc4c3=O)c2)cc1 [Compound 5] | > 1000
5 | COc1cc(C(=O)Nc2cccc(-n3c(C)nc4ccccc4c3=O)c2)cc(OC)c1OC [Compound 6] | < 1000
6 | COc1ccc(CC(=O)Nc2ccc(-n3c(C)nc4ccccc4c3=O)cc2)cc1Cl [Compound 7] | < 1000
7 | COc1cccc(CC(=O)Nc2ccc(-n3c(C)nc4ccccc4c3=O)cc2)c1 [Compound 8] | > 1000
8 | COc1cc(CC(=O)Nc2ccc(-n3c(C)nc4ccccc4c3=O)cc2C)cc(OC)c1OC [Compound 9] | < 1000
9 | CCOc1cc(C(=O)Nc2ccc(-n3c(C)nc4ccccc4c3=O)cc2)cc(OCC)c1OCC [Compound 10] | < 1000
10 | COc1ccc(CC(=O)Nc2ccc3nc(C)n(-c4ccc(F)cc4)c(=O)c3c2)cc1OC [Compound 11] | > 1000
11 | CCOc1ccc(CC(=O)Nc2ccc(-n3c(C)nc4ccccc4c3=O)cc2C)cc1 [Compound 12] | < 1000
12 | Cc1ccc(CC(=O)Nc2ccc(-n3c(C)nc4ccccc4c3=O)cc2)cc1 [Compound 14] | < 1000
13 | Cc1cccc(CC(=O)Nc2ccc(-n3c(C)nc4ccccc4c3=O)cc2)c1 [Compound 15] | < 1000
14 | Cc1ccccc1CC(=O)Nc1ccc(-n2c(C)nc3ccccc3c2=O)cc1 [Compound 16] | > 1000
15 | Cc1nc2ccccc2c(=O)n1-c1ccc(NC(=O)Cc2ccc(F)cc2)cc1 [Compound 17] | > 1000
16 | Cc1nc2ccccc2c(=O)n1-c1ccc(NC(=O)Cc2ccc(Cl)cc2)cc1 [Compound 18] | < 1000
17 | CCC(C(=O)Nc1ccc(-n2c(C)nc3ccccc3c2=O)cc1)c1ccccc1 (stereo not drawn) [Compound 19] | < 1000
18 | Cc1nc2ccccc2c(=O)n1-c1ccc(NC(=O)Cc2ccccc2Cl)cc1 [Compound 20] | > 1000
19 | Cc1ccc(CC(=O)Nc2ccc(-n3c(C)nc4ccccc4c3=O)cc2C)cc1 [Compound 21] | > 1000
20 | Cc1cccc(CC(=O)Nc2ccc(-n3c(C)nc4ccccc4c3=O)cc2C)c1 [Compound 22] | > 1000
21 | Cc1ccccc1CC(=O)Nc1ccc(-n2c(C)nc3ccccc3c2=O)cc1C [Compound 23] | > 1000
22 | Cc1cc(-n2c(C)nc3ccccc3c2=O)ccc1NC(=O)Cc1ccc(F)cc1 [Compound 24] | > 1000
23 | COc1ccc(CC(=O)Nc2ccc(-n3c(C)nc4ccccc4c3=O)cc2C)cc1 [Compound 25] | > 1000
24 | Cc1cc(-n2c(C)nc3ccccc3c2=O)ccc1NC(=O)Cc1ccc(Cl)cc1 [Compound 26] | < 1000
25 | Cc1nc2ccccc2c(=O)n1-c1ccc(NC(=O)Cc2c(F)cccc2Cl)cc1 [Compound 27] | < 1000
26 | COc1cccc(CC(=O)Nc2ccc(-n3c(C)nc4ccccc4c3=O)cc2C)c1 [Compound 28] | > 1000

Row | Structure (SMILES) | EC50 [nM]
27 | Cc1cc(-n2c(C)nc3ccccc3c2=O)ccc1NC(=O)Cc1ccccc1F [Compound 29] | > 1000
28 | Cc1cc(-n2c(C)nc3ccccc3c2=O)ccc1NC(=O)Cc1ccccc1Cl [Compound 30] | > 1000
29 | COc1ccc(CC(=O)Nc2ccc(-n3c(C)nc4ccccc4c3=O)cc2)c(Cl)c1 [Compound 31] | < 1000
30 | Cc1cc(-n2c(C)nc3ccccc3c2=O)ccc1NC(=O)Cc1c(F)cccc1Cl [Compound 32] | < 1000
31 | COc1ccc(CC(=O)Nc2ccc(-n3c(C)nc4ccccc4c3=O)cc2C)cc1Cl [Compound 33] | < 1000
32 | COc1ccc(CC(=O)Nc2ccc(-n3c(C)nc4ccccc4c3=O)cc2C)c(Cl)c1 [Compound 34] | < 1000
33 | COc1cc(CC(=O)Nc2ccc(-n3c(C(F)(F)F)nc4ccccc4c3=O)cc2)cc(OC)c1OC [Compound 40] | < 1000
34 | COc1cc(CC(=O)Nc2ccc(-n3c(C(F)F)nc4ccccc4c3=O)cc2)cc(OC)c1OC [Compound 41] | > 1000
35 | COc1cc(CC(=O)Nc2ccc(-n3c(CF)nc4ccccc4c3=O)cc2)cc(OC)c1OC [Compound 42] | < 1000
36 | COc1cc(CC(=O)Nc2ccc(-n3c(C)nc4cc(F)c(F)cc4c3=O)cc2)cc(OC)c1OC [Compound 46] | < 100
37 | COc1cc(CC(=O)Nc2ccc(-n3c(C)nc4cnccc4c3=O)cc2)cc(OC)c1OC [Compound 49] | > 1000
38 | COc1cc(CC(=O)Nc2ccc(-n3c(C)nc4ccncc4c3=O)cc2)cc(OC)c1OC [Compound 50] | > 1000
39 | COc1cc(CC(=O)Nc2cnc(-n3c(C)nc4ccccc4c3=O)cn2)cc(OC)c1OC [Compound 63] | > 1000
40 | Cc1nc2ccccc2c(=O)n1-c1ccc(NC(=O)Cc2ccc3c(c2)CCC3)cc1 [Compound 64] | < 100
41 | COc1cc(CC(=O)Nc2ccc(-n3c(C)nc4sccc4c3=O)cc2)cc(OC)c1OC [Compound 69] | < 1000
42 | COc1cc(CC(=O)Nc2ccc(-n3c(CO)nc4ccccc4c3=O)cc2)cc(OC)c1OC [Compound 71] | > 1000
43 | Cc1nc2ccccc2c(=O)n1-c1ccc(NS(=O)(=O)Cc2ccccc2)cc1 [Compound 72] | > 1000
44 | Cc1nc2ccccc2c(=O)n1-c1ccc(N(C)S(=O)(=O)Cc2ccccc2)cc1 [Compound 73] | > 1000
45 | Cc1cc(CC(=O)Nc2ccc(-n3c(C)nc4cc(F)c(F)cc4c3=O)cc2)cc(C)c1C [Compound 75] | < 100
46 | Cc1nc2cc(F)c(F)cc2c(=O)n1-c1ccc(NC(=O)Cc2cc(F)c(F)c(F)c2)cc1 [Compound 76] | < 1000
47 | Cc1nc2cc(F)c(F)cc2c(=O)n1-c1ccc(NC(=O)Cc2ccc3c(c2)CCC3)cc1 [Compound 77] | < 100
48 | Cc1nc2cc(F)c(F)cc2c(=O)n1-c1ccc(NC(=O)Cc2ccccn2)cc1 [Compound 83] | > 1000
49 | Cc1nc2cc(F)c(F)cc2c(=O)n1-c1ccc(NC(=O)Cc2cccnc2)cc1 [Compound 84] | > 1000
50 | Cc1cc(CC(=O)Nc2ccc(-n3c(C)nc4cc(F)c(F)cc4c3=O)cc2)cc(C)n1 [Compound 85] | > 1000
51 | Cc1nc2cc(F)c(F)cc2c(=O)n1-c1ccc(NC(=O)Cc2cc(C(F)(F)F)cc(C(F)(F)F)c2)cc1 [Compound 86] | < 100
